Results reported in patent US20210317090A1, “AMINO ACID DEPLETION AGENTS AS ANTIPROLIFERATIVE AGENTS” (University of Central Florida Research Foundation, Inc., priority 2018, published 2021).

Columns and labels:
CHO-K1 cells = assay: Rescue by exogenous native polyamines in CHO-K1 cells; format: cell-based, Chinese hamster; conditions: CHO-K1, toxic concentration of compound 10 (results not shown)
L3.6pl cells = assay: Analytes in supernatant of L3.6pl cells (LCMS); format: cell-based, human; conditions: 72 h
From the text: One way to affect both spermidine and spermine pools is to decrease methionine supply, which in turn would inhibit the formation of the decarboxylated S-adenosylmethionine needed to provide the aminopropyl fragment required for spermidine and spermine synthesis. Since methionine, leucine and phenylalanine all use the LAT1/SLC3A2 transporter to enter cells, it was hypothesized that 10 was inhibiting LAT-1 mediated amino acid import. To test this hypothesis, the development of various embodiments involved measuring the amino acid concentrations in the supernatants of cells incubated with compound 10 at 2 and 5 μM for 72 h.
This example illustrates aspects according to various embodiments pertaining to a 72 h experiment with Compound 10 in L3.6pl cells. Ten milliliters of a cell suspension containing L3.6pl human pancreatic cancer cells (50,000 cells/mL) and aminoguanidine ([…]) were placed in treated plastic Petri dishes (d=9 cm) and incubated overnight at 37° C. After 24 h, the cells were dosed with compound 10 at 2 μM, 5 μM, or 7 μM. (Note: Stock solutions of 10 at 2, 5, and 7 mM were dissolved in phosphate buffered saline (PBS) and were filtered through a 0.2 μm filter prior to use. The experiments were maintained with a total volume of 10.01 mL where 10 mL of the cell suspension was placed in a plastic dish and each compound or the equivalent PBS volume was added to make up the total volume 10.01 mL for each dish. For example, for the control experiment PBS (10 μL) was added to make up the total volume (10 mL+10 μL=10.01 mL). After 72 h incubation, the cells were collected first by pipetting off the supernatant containing floating dead cells from the culture dish as well as media and placing them into 15 mL tubes. The supernatant containing floating cells was centrifuged (4 min at 1,000 rpm). The cell-free supernatant (supernatant #1) was collected into a new 15 mL tube and quantified (˜8.6 mL) and was then stored frozen and was later quantified by LCMS to investigate the media composition of particular polyamine and amino acid analytes. The attached cells on the dish were washed with PBS (5 mL). The PBS wash was removed by suction and additional PBS (2 mL) was added and again suctioned off to provide twice-washed cells still adhered to the dish. Trypsin (2 mL) was then added to each dish and incubated (3-5 min) until all the cells were detached. Fresh media (8 mL) was added to quench the trypsin. The cell solutions were pipetted into separate 15 mL tubes and centrifuged (4 min at 1,000 rpm). The resulting supernatant was removed to provide a pellet. The pellet was suspended in PBS (10 mL) and was counted by a hemocytometer to provide cell counts for each experimental condition. The pellet was then centrifuged (4 min at 1,000 rpm) and the supernatant removed and the remaining pellet was quantified via protein and polyamine analysis.
This example illustrates aspects according to various embodiments pertaining to an LCMS Analysis. The respective supernatant (10 μL) was injected on a Thermo HPLC system equipped with PAL CTC plate sampler (96-well plate), Dionex Ultimate 3000 binary pump (flow rate at 0.25 mL/min), Dionex Ultimate 3000 thermostatted column compartment (temperature at 40° C.), Thermo Endura Mass Spectrometer (ESI source), using Thermo Scientific Accucore C18 (2.6 μm, 2.1×50 mm, 100 Å) column under a gradient of acetonitrile w/0.1% heptafluorobutyric acid (HFBA) in H2O w/0.1% HFBA from 2% at minute 0 to 60% at minute 5.0, to 99% at minute 6.5 held until minute 7.5 and then reduced back to 2% until minute 10 to re-equilibrate the column for the next injection. The peak area was measured and analyte amounts were calculated referring to analyte calibration curves. Analyte levels were adjusted with internal standard concentration for extraction efficiency. Peak height measurements were conducted referring to values obtained for standards of known concentrations. […]

With `CC(C)CCN1CCN(C(CNCc2ccccc2)CC2CCCCC2)CC1CC(C)C.Cl.Cl.Cl` (stereo not shown) [Compound 10, Benzyl-{3-cyclohexyl-2-[3-isobutyl-4-(3-methyl-butyl)-piperazin-1-yl]-propyl}-amine trihydrochloride salt] as the molecule, how does the “rescue of treated cells by native polyamines” value (CHO-K1 cells) read?
Its value is “unable to rescue”.

And the “Supernatant level Acetyl spermidine” value (L3.6pl cells; 2 μM)?
Its value is 1649 ± 18 pmoles/mg protein.

What about the “Supernatant level Acetyl spermine” value (L3.6pl cells; 2 μM) of the same molecule?
The value was 49 ± 10 pmoles/mg protein.

What about the “Supernatant level Agmatine” value (L3.6pl cells; 2 μM) of the same molecule?
The value was 297 ± 163 pmoles/mg protein.

And the “Supernatant level Arginine” value (L3.6pl cells; 2 μM)?
The value was 18396 ± 70 pmoles/mg protein.

What about the “Supernatant level Glutamic acid” value (L3.6pl cells; 2 μM) of the same molecule?
Its value is 20231 ± 649 pmoles/mg protein.

And the “Supernatant level Leucine” value (L3.6pl cells; 2 μM)?
Its value is 15055 ± 1043 pmoles/mg protein.

And the “Supernatant level Methionine” value (L3.6pl cells; 2 μM)?
The value was 17686 ± 2432 pmoles/mg protein.

What about the “Supernatant level Ornithine” value (L3.6pl cells; 2 μM) of the same molecule?
Its value is 9249 ± 306 pmoles/mg protein.

What about the “Supernatant level Phenylalanine” value (L3.6pl cells; 2 μM) of the same molecule?
Its value is 11954 ± 828 pmoles/mg protein.

What about the “Supernatant level Putrescine” value (L3.6pl cells; 2 μM) of the same molecule?
Its value is 938 ± 70 pmoles/mg protein.

What about the “Supernatant level Spermidine” value (L3.6pl cells; 2 μM) of the same molecule?
The value was 131 ± 26 pmoles/mg protein.

What about the “Supernatant level Spermine” value (L3.6pl cells; 2 μM) of the same molecule?
Its value is 2532 ± 406 pmoles/mg protein.

And the “Supernatant level Acetyl spermidine” value (L3.6pl cells; 5 μM)?
Its value is 1706 ± 29 pmoles/mg protein.

What about the “Supernatant level Acetyl spermine” value (L3.6pl cells; 5 μM) of the same molecule?
Its value is 36 ± 4 pmoles/mg protein.

What about the “Supernatant level Agmatine” value (L3.6pl cells; 5 μM) of the same molecule?
The value was 485 ± 176 pmoles/mg protein.

What about the “Supernatant level Arginine” value (L3.6pl cells; 5 μM) of the same molecule?
The value was 43243 ± 2047 pmoles/mg protein.

What about the “Supernatant level Glutamic acid” value (L3.6pl cells; 5 μM) of the same molecule?
The value was 34033 ± 540 pmoles/mg protein.

What about the “Supernatant level Leucine” value (L3.6pl cells; 5 μM) of the same molecule?
The value was 202092 ± 23817 pmoles/mg protein.

What about the “Supernatant level Methionine” value (L3.6pl cells; 5 μM) of the same molecule?
The value was 64036 ± 5454 pmoles/mg protein.

What about the “Supernatant level Ornithine” value (L3.6pl cells; 5 μM) of the same molecule?
Its value is 15951 ± 118 pmoles/mg protein.

What about the “Supernatant level Phenylalanine” value (L3.6pl cells; 5 μM) of the same molecule?
Its value is 160462 ± 18910 pmoles/mg protein.

And the “Supernatant level Putrescine” value (L3.6pl cells; 5 μM)?
Its value is 2224 ± 98 pmoles/mg protein.

What about the “Supernatant level Spermidine” value (L3.6pl cells; 5 μM) of the same molecule?
The value was 167 ± 32 pmoles/mg protein.

What about the “Supernatant level Spermine” value (L3.6pl cells; 5 μM) of the same molecule?
Its value is 2690 ± 889 pmoles/mg protein.
